The target in experiment [1] is Replicase polyprotein 1ab (Middle East respiratory syndrome-related coronavirus (isolate UnitedKingdom/H123990006/2012) (Betacoronavirus England 1) (Humancoronavirus EMC)) (UniProt K9N7C7). The following applies: at 10 µM.
Experiment [2] concerns the target Replicase polyprotein 1ab (Middle East respiratory syndrome-related coronavirus (isolate UnitedKingdom/H123990006/2012) (Betacoronavirus England 1) (Humancoronavirus EMC), UniProt K9N7C7). As to the kind of experiment: biochemical. It counts as functional.
For experiment [3], the target named is Chymotrypsin (Homo sapiens) (UniProt Q99895+P17538+P40313+Q6GPI1). As to the kind of experiment: Chymotrypsin inhibition percentage at 10 µM by FRET kind of response from peptide substrate. The class given is functional.
Chymotrypsin (Homo sapiens), sequence (Q6GPI1 whole entry, looked up, chain 1 of 4): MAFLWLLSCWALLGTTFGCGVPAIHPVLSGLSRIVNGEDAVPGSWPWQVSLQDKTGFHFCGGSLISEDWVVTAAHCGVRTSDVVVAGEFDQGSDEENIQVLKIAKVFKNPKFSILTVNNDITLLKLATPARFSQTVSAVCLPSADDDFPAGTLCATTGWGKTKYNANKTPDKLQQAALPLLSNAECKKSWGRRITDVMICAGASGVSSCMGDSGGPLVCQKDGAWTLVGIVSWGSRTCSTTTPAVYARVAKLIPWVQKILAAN
Chymotrypsin (Homo sapiens), sequence (P40313 whole entry, looked up, chain 2 of 4): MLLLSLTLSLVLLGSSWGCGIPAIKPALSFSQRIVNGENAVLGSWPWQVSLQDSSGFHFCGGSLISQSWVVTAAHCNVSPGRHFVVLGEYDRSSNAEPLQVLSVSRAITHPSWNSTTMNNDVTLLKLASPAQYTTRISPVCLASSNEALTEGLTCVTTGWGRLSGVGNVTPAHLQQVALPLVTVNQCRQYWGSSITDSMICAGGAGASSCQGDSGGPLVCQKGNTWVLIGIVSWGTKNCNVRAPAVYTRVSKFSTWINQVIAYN
Chymotrypsin (Homo sapiens), sequence (P17538 whole entry, looked up, chain 3 of 4): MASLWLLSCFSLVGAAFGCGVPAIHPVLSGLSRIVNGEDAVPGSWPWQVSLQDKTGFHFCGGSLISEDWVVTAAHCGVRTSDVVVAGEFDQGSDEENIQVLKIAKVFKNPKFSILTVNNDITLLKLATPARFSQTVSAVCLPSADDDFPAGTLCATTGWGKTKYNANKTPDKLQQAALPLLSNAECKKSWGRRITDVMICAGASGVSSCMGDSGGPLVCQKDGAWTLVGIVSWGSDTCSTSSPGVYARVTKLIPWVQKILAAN
Chymotrypsin (Homo sapiens), sequence (Q99895 whole entry, looked up, chain 4 of 4): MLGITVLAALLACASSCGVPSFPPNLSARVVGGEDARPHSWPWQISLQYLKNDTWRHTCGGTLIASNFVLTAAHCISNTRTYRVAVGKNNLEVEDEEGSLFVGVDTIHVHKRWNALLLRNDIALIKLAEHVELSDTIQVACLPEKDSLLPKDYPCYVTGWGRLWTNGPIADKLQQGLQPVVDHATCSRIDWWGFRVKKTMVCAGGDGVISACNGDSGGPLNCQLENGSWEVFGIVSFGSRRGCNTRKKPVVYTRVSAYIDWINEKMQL

“And” between values parts separate entries of the source, which are not always exact repeats. Equal values may be shown once. Where a name gives a salt, the structure may show the parent alone.

Replicase polyprotein 1ab, sequence (K9N7C7 3248-3553 limits assumed): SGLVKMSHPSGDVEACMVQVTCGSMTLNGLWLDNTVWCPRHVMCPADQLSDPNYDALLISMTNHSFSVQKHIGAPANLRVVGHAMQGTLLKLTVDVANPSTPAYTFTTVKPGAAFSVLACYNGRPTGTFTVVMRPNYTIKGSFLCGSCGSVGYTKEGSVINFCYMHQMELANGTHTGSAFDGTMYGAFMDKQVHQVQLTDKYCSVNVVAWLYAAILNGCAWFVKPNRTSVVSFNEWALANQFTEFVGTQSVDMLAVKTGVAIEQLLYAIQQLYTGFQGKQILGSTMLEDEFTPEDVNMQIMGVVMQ

In the case of `O=C(O)c1ccc(SSc2ccc(C(=O)O)cn2)nc1`, the inhibition in experiment [1] was determined as 8%. Moreover, the IC50 in experiment [2] is over 10 µM. The corresponding values for `CN1CC[C@@]2(C)c3cc(O)ccc3N(C)[C@@H]12` are 41% and over 10 µM. On to `O=C1C(Cl)=C(N2CCOCC2)C(=O)N1c1ccc(Cl)c(Cl)c1`, for which the inhibition in experiment [1] is 0%; in experiment [3], 7.24%. Further, in experiment [2], the IC50 was over 10 µM. Regarding `CCC(=O)OCN1C(=O)C=CC1=O`, the inhibition in experiment [1] was found to be 0%. Besides, the IC50 in experiment [2] was over 10 µM. On to `O=C1C=CC(=O)C2=C1C1c3ccccc3C2c2ccccc21`, for which the inhibition in experiment [1] was 45%. In experiment [2], the IC50 was over 10 µM. For `C=CC(=O)c1ccc2ccccc2c1` the same measures were 26% and over 10 µM.

On to `c1ccc2sc(SNC3CCCCC3)nc2c1`, for which the inhibition in experiment [1] worked out at 0%. In experiment [2], this molecule gave an IC50 of over 10 µM.

As for `CCOC(=O)Cc1ccc(-c2ccccc2)cc1`, the inhibition in experiment [1] is 18%; in experiment [3] it was -0.88%. In experiment [2], this molecule returned an IC50 of over 10 µM. `COc1cccc(C(=O)CCN[C@@H](C)[C@H](O)c2ccccc2)c1`: the inhibition in experiment [1] stood at 19%. The molecule also had a half-inhibitory concentration (IC50) in experiment [2] of over 10 µM. In turn, `[O-][S+](c1ccccc1)c1ccc2nnnn2n1` (centres undefined) yielded an IC50 in experiment [2] of 10.1 µM. For `Nc1cc2c3ccccc3ccc2c2ccccc12`, the figures for the inhibition in experiment [1] and in experiment [3] were 3% and -3.88%, respectively. This molecule also registered an IC50 in experiment [2] of over 10 µM. With `Oc1c(I)cc(I)c(O)c1I`, in experiment [1], the inhibition was found to be 0%. In addition, the IC50 in experiment [2] was over 10 µM.

With `Cc1ccccc1N(C)C(=O)c1ccc([S+]([O-])c2nccs2)c([N+](=O)[O-])c1` (centres undefined), the values for the inhibition in experiment [1] and in experiment [3] were 7% and 0.13%, respectively. Further, the IC50 in experiment [2] was over 10 µM. With `N#CSc1cc(SC#N)c(N)nc1N`, the inhibition in experiment [3] came out at 4.59%. In experiment [2], this molecule came in with an IC50 of 2.3 µM.

Consider `Oc1ccc2ccccc2c1SSc1c(O)ccc2ccccc12`, for which, in experiment [1], the inhibition amounted to 6%. The IC50 in experiment [2] was over 10 µM. For `CN(C)CCNc1nc2cc(O)ccc2c2c1C(=O)c1ccccc1-2` the same measures were 0% and over 10 µM.

Turning to `Oc1cc2c(cc1O)C(c1ccccc1)CNCC2` (centres undefined), the inhibition was 5% in experiment [1] and 8.97% in experiment [3]. The molecule also had an IC50 in experiment [2] of over 10 µM. The molecule `O=[N+]([O-])c1cnc(Sc2nnc(O)n2-c2ccc3c(c2)OCCO3)s1` gave an IC50 in experiment [2] of 3.8 µM. Take `Nc1nnc(Sc2ncc([N+](=O)[O-])s2)s1`: the inhibition in experiment [1] amounted to 45%. Further, the IC50 in experiment [2] is over 10 µM. For `CC[C@H](CO)Nc1nc(NCc2ccc(-c3ccccn3)cc2)c2ncn(C(C)C)c2n1` the same measures were 4% and over 10 µM.

In turn, `CC(C)N(CCC(=O)c1ccc2ccccc2c1)Cc1ccccc1` had an IC50 in experiment [2] of 8.1 µM. As to `CCCCCCNC(=O)n1cc(F)c(=O)[nH]c1=O`, in experiment [3], the inhibition stood at 14%. In the case of `CCCCn1c(NC(=O)c2cccs2)c(C#N)c2nc3ccccc3nc21`, the inhibition in experiment [3] is -3.7%. On to `CCN1CCN(C(c2ccc(C(F)(F)F)cc2)c2ccc3cccnc3c2O)CC1` (centres undefined), for which, in experiment [3], the inhibition was 3.72%.

For the molecule `COC(=O)CC[C@H](NC(=O)[C@H](CC(=O)OC)NC(=O)OCc1ccccc1)C(=O)N[C@H](C(=O)N[C@@H](CC(=O)OC)C(=O)CF)C(C)C`, in experiment [3], the inhibition worked out at 11.2%. `Cc1cc(C)cc(N2C(=O)CC(Sc3nc[nH]n3)C2=O)c1` (centres undefined): in experiment [3], the inhibition amounted to 2.86%. Take `Cc1ccc(C)c(-n2sc3cc(F)ccc3c2=O)c1`: the inhibition in experiment [3] was -0.52%.

For the molecule `Cn1sc(=O)n(Cc2ccccc2)c1=O`, the inhibition in experiment [3] was found to be 4.03%.

As for `Nc1ccc(O)c2ncccc12`, the inhibition in experiment [3] worked out at 4.98%. Still for that read-out and setting: as for `O=C(CC1Sc2ncnn2C1=O)Nc1ccc(Br)cc1` (centres undefined), the figure is 8.42%. On the same count and under the same terms, as for `O=C(CCl)c1ccccc1`, the figure is 7.75%; as for `O=[N+]([O-])c1ccc(Sc2cccc[n+]2[O-])c2nonc12`, 4.87%; as for `Oc1cc2c(cc1C(c1ccc(C(F)(F)F)cc1)N1CCOCC1)OCO2` (centres undefined), 7.04%. Turning to `[O-][n+]1ccccc1S`, the inhibition in experiment [1] (tested as the Zn salt or complex) turned out to be 42%; in experiment [3] it was 8.11%. Consider `c1ccc2sc(SSc3nc4ccccc4s3)nc2c1`, for which the inhibition in experiment [3] is 5.04%.

For the molecule `Sc1nc2ccccc2s1` [2-MERCAPTOBENZOTHIAZOLE], the inhibition in experiment [1] is 0%. The same molecule came in with an IC50 in experiment [2] of over 10 µM. For the molecule `CC(C)c1ccc2oc3nc(N)c(C(=O)O)cc3c(=O)c2c1` [AMLEXANOX], the figures for the inhibition in experiment [1] and in experiment [3] were 0% and 4.03%, respectively. Also, the IC50 in experiment [2] was over 10 µM. Turning to `O=C1c2c(O)cc(O)cc2O[C@H](c2cc(O)c(O)c(O)c2)[C@H]1O` [AMPELOPSIN], the inhibition in experiment [1] is 18%. Further, the IC50 in experiment [2] is over 10 µM.

With `O=c1cc(-c2ccc(O)cc2)oc2cc(O)cc(O)c12` [APIGENIN], the inhibition in experiment [1] turned out to be 17%. Besides, in experiment [2], the IC50 is over 10 µM. For `CN1CCc2cccc3c2[C@H]1Cc1ccc(O)c(O)c1-3` [APOMORPHINE HYDROCHLORIDE] the same measures were 6% and over 10 µM. The corresponding values for `O=c1cc(-c2ccccc2)oc2cc(O)c(O)c(O)c12` [BAICALEIN] are 47% and over 10 µM. As for `CC(C)(C)c1ccc(S(=O)(=O)/C=C/C#N)cc1` [BAY-11-7085], the inhibition in experiment [1] amounted to 0%. Moreover, the IC50 in experiment [2] is over 10 µM. As for `NC(CO)C(=O)NNCc1ccc(O)c(O)c1O` (centres undefined) [BENSERAZIDE HYDROCHLORIDE], the inhibition in experiment [1] was 9%; in experiment [3] it was 0.39%. Also, the IC50 in experiment [2] is over 10 µM. Take `CN(C)C(=S)SC(=S)N(C)C` [BIS(DIMETHYLAMINETHIOCARBONYL)MONOSULFIDE]: the inhibition in experiment [1] was 0%. The molecule also gave an IC50 in experiment [2] of over 10 µM. For `O=[N+]([O-])C(Br)(CO)CO` [BRONOPOL] the same measures were 14% and over 10 µM.

Consider `O=C1C2CC=CCC2C(=O)N1SC(Cl)(Cl)Cl` (centres undefined) [CAPTAN], for which the inhibition in experiment [1] worked out at 5%. This molecule displayed an IC50 in experiment [2] of over 10 µM. The corresponding values for `CNC(=O)ON(C(C)=O)C(=O)NC` [CARACEMIDE] are 8% and over 10 µM.

`Oc1cc2c(cc1O)[C@H]1c3ccccc3CN[C@@H]1CC2` [DIHYDREXIDINE HYDROCHLORIDE]: in experiment [1], the inhibition came out at 19%. The molecule also yielded an IC50 in experiment [2] of over 10 µM. For `O=c1c2ccccc2[se]n1-c1ccccc1` [EBSELEN] the same measures were 14% and over 10 µM. For `O=C(O[C@@H]1Cc2c(O)cc(O)cc2O[C@@H]1c1cc(O)c(O)c(O)c1)c1cc(O)c(O)c(O)c1` [EPIGALOCATECHIN GALLATE], the inhibition in experiment [1] is 10% and 16%; in experiment [3] it was -0.5%. The molecule further had an IC50 in experiment [2] of over 10 µM. `O=C(c1cc(O)c(O)c(O)c1)c1ccc(O)c(O)c1O` [EXIFONE]: the inhibition in experiment [1] was determined as 0%. In experiment [2], this molecule displayed an IC50 of over 10 µM. Turning to `Oc1cc2c(cc1O)[C@@H]1c3ccc(O)c(O)c3OC[C@]1(O)C2` [HEMATOXYLIN], the inhibition in experiment [1] stood at 5%. The molecule further yielded an IC50 in experiment [2] of over 10 µM. The corresponding values for `O=C(O)CCCCCCCCCCCCCCc1ccc(I)cc1` [IOCANLIDIC ACID] are 0% and over 10 µM. On to `O=C(c1ccc(/C=C/c2n[nH]c3ccccc23)cc1)N1CCNCC1` [KW-2449], for which the inhibition in experiment [3] worked out at 3.6%. Further, the IC50 in experiment [2] came out at 3.6 µM.

As to `C[C@H]1COc2c(N3CCN(C)CC3)c(F)cc3c(=O)c(C(=O)O)cn1c23` [LEVOFLOXACIN], the inhibition in experiment [3] was 1.29%. The IC50 in experiment [2] was 7.6 µM. For `O=c1c(O)c(-c2cc(O)c(O)c(O)c2)oc2cc(O)cc(O)c12` [MYRICETIN], the inhibition in experiment [1] was 5%; in experiment [3] it was 3.78%. This molecule also yielded a 50% inhibitory concentration (IC50) in experiment [2] of over 10 µM. Consider `CC(Cc1ccc(O)c(O)c1)C(C)Cc1ccc(O)c(O)c1` (centres undefined) [NORDIHYDROGUAIARETIC ACID], for which, in experiment [1], the inhibition was 0%. The same molecule showed an IC50 in experiment [2] of over 10 µM.

As for `Oc1cc(O)cc(/C=C/c2ccc(O)c(O)c2)c1` [PICEATANNOL], in experiment [1], the inhibition is 24%. In addition, in experiment [2], the half-inhibitory concentration (IC50) is over 10 µM. In turn, `CCC(C)SSc1ncc[nH]1` (centres undefined) [PX-12] gave an IC50 in experiment [2] of 7.6 µM.

In the case of `COCCCOc1ccnc(C[S+]([O-])c2nc3ccccc3[nH]2)c1C` (centres undefined) [RABEPRAZOLE SODIUM], in experiment [1], the inhibition is 46%. In addition, in experiment [2], the IC50 is over 10 µM. The corresponding values for `O=C(/C=C/c1ccc(O)c(O)c1)O[C@H](Cc1ccc(O)c(O)c1)C(=O)O` [ROSMARINIC ACID] are 19% and over 10 µM.

Turning to `C[n+]1cc2c3c(ccc2c2ccc4cc5c(cc4c21)OCO5)OCO3` [SANGUINARIUM CHLORIDE], the inhibition in experiment [1] turned out to be 32%. This molecule also came in with an IC50 in experiment [2] of over 10 µM. As for `Nc1ccc(S(=O)(=O)Nc2ncccn2)cc1` [SULFADIAZINE, SILVER], the IC50 in experiment [2] (tested as the Ag salt or complex) was over 10 µM. On to `COc1ccc2[nH]c([S+]([O-])Cc3ncc(C)c(OC)c3C)nc2n1` (centres undefined) [TENATOPRAZOLE], for which the inhibition in experiment [1] worked out at 0%. In experiment [2], this molecule showed an IC50 of over 10 µM. For `CN(C)C(=S)SSC(=S)N(C)C` [THIRAM] the same measures were 48% and over 10 µM. The corresponding values for `COc1cc(C(=S)N2CCOCC2)ccc1O` [VANITIOLIDE] are 0% and over 10 µM. As for ACRIFLAVINE HYDROCHLORIDE, the inhibition in experiment [3] was determined as 22%.

In the case of Auranofin, the figures for the inhibition in experiment [1] and in experiment [3] were 27% and 8.63%, respectively. The corresponding values for MERBROMIN are 0% and 10.5%. The corresponding values for PHENYLMERCURIC ACETATE are 4% and 8.59%. Regarding THIMEROSAL [listing 1 of 2 here], in experiment [2], the IC50 is over 10 µM. As to THIMEROSAL [listing 2 of 2 here], the inhibition in experiment [1] was found to be 46%. hemin: the inhibition stood at 7% in experiment [1] and 6.35% in experiment [3].

As a reminder, the inhibition is the drop in the measured response relative to a control, in per cent. A word on the IC50: it is the point on the concentration scale where inhibition reaches its midpoint.
